From patent US8809001B2, “High throughput assays for inhibitors and activators of PAQR receptors” (University of Florida Research Foundation, Inc., priority 2007, dated 2014)
Read-outs that look alike come from different tables or passages of the source.

Columns and labels:
mPRγ = molecular target: T1, mPRγ (Homo sapiens, UniProt Q9NXK6); assay: FET3-lacZ reporter repression in yeast expressing mPRγ; assay type: cell-based
T1 construct: Full length and truncated mPRγ and mPRα were expressed in wild type cells grown in 2% galactose from the pGREG536 vector; expressed in transfected cells; host or cells: Saccharomyces cerevisiae (BY4742 wild type; also gpa mutants), GAL1-driven plasmids
T1 sequence (Q9NXK6 1-330): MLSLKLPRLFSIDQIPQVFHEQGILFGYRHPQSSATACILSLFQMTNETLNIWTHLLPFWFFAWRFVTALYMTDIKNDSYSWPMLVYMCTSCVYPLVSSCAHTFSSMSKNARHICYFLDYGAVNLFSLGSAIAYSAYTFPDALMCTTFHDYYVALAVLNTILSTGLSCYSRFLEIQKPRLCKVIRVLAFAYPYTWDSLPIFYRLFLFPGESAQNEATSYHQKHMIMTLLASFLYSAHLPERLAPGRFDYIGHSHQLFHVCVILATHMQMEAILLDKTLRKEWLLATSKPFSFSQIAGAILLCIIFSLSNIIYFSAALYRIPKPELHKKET
Text: (§1) Plasmids and primers. Human PAQRs were cloned into various vectors by PCR from commercially/publically available cDNAs. PAQRs were cloned into the pYES260 (Melcher, 2000), pRS316 (Liu et al., 1992) or pGREG536 (Jansen et al., 2005) expression vectors using gap repair. The pJK90 plasmid containing a Dual Topology Reporter (DTR)-tagged OST4 gene driven by the constitutive TPI1 promoter was kindly provided by Dr. Gunnar von Heijne (Stockholm University) (Kim et al., 2003). The OST4 open reading frame in pJK90 was replaced with the PAQR6 and mPRα open reading frames by gap repair. Primers for all cloning reactions are listed herein. Proteins expressed in pYES260 have an N-terminal 6×-histidine tag followed by a TEV protease cleavage site. Proteins expressed in pGREG536 have an N-terminal 7×-HA tag. Proteins expressed in the pRS316 vector are untagged. The pYES260, pRS316 and pGREG536 vectors allow for galactose-inducible expression via the GAL1 promoter. […] The FET3-lacZ plasmid was previously described (Kupchak et al., 2007). Plasmids derived from pADM4 carrying hyperactive alleles of Gpa1p (Gpa1p^Q323L) (Slessareva et al., 2006) and Gpa2p (Gpa2p^Q300L) (Harashima et al., 2002) driven by the ADH1 promoter were kindly provided by Dr. Henrik Dohlman (UNC Chapel Hill). A pRS316-based plasmid containing the STE2 gene under the control of the GAL1 promoter (Feng et al., 2000) was kindly provided by Dr. Nicholas G. Davis (Wayne State University).
Assays and growth conditions. Strains were maintained using standard protocol and grown in synthetic defined (SD) media with the appropriate amino acids to match the auxotrophies of the individual strains. Low Iron Medium (LIM) contains EDTA to limit iron-bioavailability and its composition has been previously described (Kupchak et al., 2007). […] In brief, overnights of cells grown in SD-glucose media were re-inoculated into iron-deficient LIM to induce the expression of FET3. 2% galactose was used as a carbon source to induce full expression of PAQR genes driven by the GAL1 promoter, while 0.05% galactose/1.95% raffinose was used for reduced PAQR expression. All ligands were added to the growth medium upon re-inoculation into LIM. For experiments in which steroids were added as ligands, steroids were added from ethanol stocks and “untreated” controls are actually treated with an equal volume of ethanol to control for vehicle effects. Cells were allowed to grow to mid-log phase at which time the activity of the FET3 gene was monitored using a FET3-lacZ promoter-reporter construct. lacZ activities are presented as a percentage of activity seen in untreated cells expressing the appropriate empty expression vector control. For individual experiments, each data point has been done in triplicate and the error bars represent +/−1 standard deviation. All experiments were performed at least three times and a representative experiment is shown. EC50 values were obtained using the web-based BioDataFit software using sigmoidal curve-fitting. (web site changbioscience.com/stat/ec50.html)

mPRα = molecular target: T2, mPRα (Homo sapiens, UniProt Q86WK9); assay: cell-based
T2 construct: Full length and truncated mPRγ and mPRα were expressed in wild type cells grown in 2% galactose from the pGREG536 vector; expressed in transfected cells; host or cells: Saccharomyces cerevisiae (BY4742 wild type; also gpa mutants), GAL1-driven plasmids (TPI1 promoter in pJK90)
T2 sequence (Q86WK9 1-346): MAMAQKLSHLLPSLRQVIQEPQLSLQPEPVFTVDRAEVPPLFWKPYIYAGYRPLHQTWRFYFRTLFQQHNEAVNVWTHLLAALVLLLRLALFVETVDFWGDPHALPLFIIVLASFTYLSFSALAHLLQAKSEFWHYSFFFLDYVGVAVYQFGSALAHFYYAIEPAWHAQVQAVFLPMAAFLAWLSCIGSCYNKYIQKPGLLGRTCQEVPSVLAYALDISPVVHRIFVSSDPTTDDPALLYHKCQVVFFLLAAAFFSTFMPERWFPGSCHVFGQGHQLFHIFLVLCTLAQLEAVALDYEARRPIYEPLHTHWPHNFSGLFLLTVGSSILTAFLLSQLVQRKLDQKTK
Text: Plasmids and primers. Human PAQRs were cloned into various vectors by PCR from commercially/publically available cDNAs. […] The OST4 open reading frame in pJK90 was replaced with the PAQR6 and mPRα open reading frames by gap repair. Primers for all cloning reactions are listed herein. Proteins expressed in pYES260 have an N-terminal 6×-histidine tag followed by a TEV protease cleavage site. Proteins expressed in pGREG536 have an N-terminal 7×-HA tag. Proteins expressed in the pRS316 vector are untagged. The pYES260, pRS316 and pGREG536 vectors allow for galactose-inducible expression via the GAL1 promoter. […] A pRS316-based plasmid containing the STE2 gene under the control of the GAL1 promoter (Feng et al., 2000) was kindly provided by Dr. Nicholas G. Davis (Wayne State University).
Assays and growth conditions. Strains were maintained using standard protocol and grown in synthetic defined (SD) media with the appropriate amino acids to match the auxotrophies of the individual strains. […] In brief, overnights of cells grown in SD-glucose media were re-inoculated into iron-deficient LIM to induce the expression of FET3. […] All ligands were added to the growth medium upon re-inoculation into LIM. For experiments in which steroids were added as ligands, steroids were added from ethanol stocks and “untreated” controls are actually treated with an equal volume of ethanol to control for vehicle effects. […] All experiments were performed at least three times and a representative experiment is shown. EC50 values were obtained using the web-based BioDataFit software using sigmoidal curve-fitting. (web site changbioscience.com/stat/ec50.html)

PAQR6 = molecular target: T3, PAQR6 (Homo sapiens, UniProt Q6TCH4); assay: FET3-lacZ reporter repression in yeast expressing PAQR6; assay type: cell-based; settings: FET3-lacZ
T3 construct: expressed in transfected cells; host or cells: Saccharomyces cerevisiae BY4742, GAL1-driven pYES260 plasmid
T3 sequence (Q6TCH4 1-344): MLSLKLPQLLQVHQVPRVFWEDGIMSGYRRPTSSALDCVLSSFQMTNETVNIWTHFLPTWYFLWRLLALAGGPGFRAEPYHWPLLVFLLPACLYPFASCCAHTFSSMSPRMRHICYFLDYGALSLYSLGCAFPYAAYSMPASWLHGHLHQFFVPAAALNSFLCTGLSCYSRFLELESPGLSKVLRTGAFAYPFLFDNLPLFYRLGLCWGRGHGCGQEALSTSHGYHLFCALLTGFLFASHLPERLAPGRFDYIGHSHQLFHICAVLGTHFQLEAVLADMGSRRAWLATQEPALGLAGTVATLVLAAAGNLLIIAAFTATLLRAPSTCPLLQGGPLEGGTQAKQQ
Text: as §1, with “Plasmids derived from pADM4 carrying hyperactive alleles of Gpa1p (Gpa1p^Q323L) (Slessareva et al., 2006) and Gpa2p (Gpa2p^Q300L) (Harashima et al., 2002) driven by the ADH1 promoter were kindly provided by Dr. Henrik Dohlman (UNC Chapel Hill). A pRS316-based plasmid containing the STE2 gene under the control of the GAL1 promoter (Feng et al., 2000) was kindly provided by Dr. Nicholas G. Davis (Wayne State University).” left out
(§2) Assays and growth conditions. […] Cells were allowed to grow to mid-log phase at which time the activity of the FET3 gene was monitored using a FET3-lacZ promoter-reporter construct. lacZ activities are presented as a percentage of activity seen in untreated cells expressing the appropriate empty expression vector control. […]

PAQR9 = molecular target: T4, PAQR9 (Homo sapiens, UniProt Q6ZVX9); assay: FET3-lacZ reporter repression in yeast expressing PAQR9; assay type: cell-based; settings: FET3-lacZ
T4 construct: expressed in transfected cells; host or cells: Saccharomyces cerevisiae BY4742, GAL1-driven pYES260 plasmid
T4 sequence (Q6ZVX9 1-377): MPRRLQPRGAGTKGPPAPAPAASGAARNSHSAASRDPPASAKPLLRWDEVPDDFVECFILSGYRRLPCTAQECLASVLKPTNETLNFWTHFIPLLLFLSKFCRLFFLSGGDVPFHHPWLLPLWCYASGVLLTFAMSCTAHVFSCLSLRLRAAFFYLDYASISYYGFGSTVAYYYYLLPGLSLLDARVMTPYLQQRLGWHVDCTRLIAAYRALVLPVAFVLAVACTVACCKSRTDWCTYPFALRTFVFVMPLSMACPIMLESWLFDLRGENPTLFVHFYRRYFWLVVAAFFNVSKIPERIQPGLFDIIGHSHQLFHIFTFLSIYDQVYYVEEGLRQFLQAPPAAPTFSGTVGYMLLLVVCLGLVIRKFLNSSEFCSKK
Text: as §1
Assays and growth conditions. Strains were maintained using standard protocol and grown in synthetic defined (SD) media with the appropriate amino acids to match the auxotrophies of the individual strains. Low Iron Medium (LIM) contains EDTA to limit iron-bioavailability and its composition has been previously described (Kupchak et al., 2007). […] Cells were allowed to grow to mid-log phase at which time the activity of the FET3 gene was monitored using a FET3-lacZ promoter-reporter construct. lacZ activities are presented as a percentage of activity seen in untreated cells expressing the appropriate empty expression vector control. […]

Ste2p GPCR = molecular target: T5, Ste2p GPCR (Saccharomyces cerevisiae, UniProt D6VTK4); assay: FET3-lacZ reporter in yeast overexpressing Ste2p GPCR; assay type: cell-based; settings: 1 μM; overexpressed Ste2p, wild type cells (mat a), 2% galactose
T5 construct: expressed in transfected cells; host or cells: Saccharomyces cerevisiae wild type (mat a), pRS316-based GAL1-STE2 plasmid
T5 sequence (D6VTK4 1-431): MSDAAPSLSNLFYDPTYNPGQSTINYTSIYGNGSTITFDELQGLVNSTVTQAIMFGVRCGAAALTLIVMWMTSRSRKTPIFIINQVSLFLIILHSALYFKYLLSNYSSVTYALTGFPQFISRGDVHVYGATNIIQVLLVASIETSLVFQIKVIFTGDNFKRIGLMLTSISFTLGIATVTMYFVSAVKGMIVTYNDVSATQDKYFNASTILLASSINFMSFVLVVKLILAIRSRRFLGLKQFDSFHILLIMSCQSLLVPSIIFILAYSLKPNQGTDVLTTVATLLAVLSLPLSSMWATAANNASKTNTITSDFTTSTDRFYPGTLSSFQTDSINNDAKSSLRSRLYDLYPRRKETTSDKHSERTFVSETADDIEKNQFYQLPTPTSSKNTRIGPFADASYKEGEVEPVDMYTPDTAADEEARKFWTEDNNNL
Text: as §1, with “Plasmids derived from pADM4 carrying hyperactive alleles of Gpa1p (Gpa1p^Q323L) (Slessareva et al., 2006) and Gpa2p (Gpa2p^Q300L) (Harashima et al., 2002) driven by the ADH1 promoter were kindly provided by Dr. Henrik Dohlman (UNC Chapel Hill). A pRS316-based plasmid containing the STE2 gene under the control of the GAL1 promoter (Feng et al., 2000) was kindly provided by Dr. Nicholas G. Davis (Wayne State University).” left out
as §2

pFET3-397 = pFET3-397 lacZ reporter in yeast with AMPK activator in the growth medium; assay type: cell-based, Saccharomyces cerevisiae; settings: 500 μM in the growth medium
Protocol: Most experiments were performed in a defined EDTA-containing medium known as low iron medium (LIM) (Eide et al., 1992). Iron-deficiency and repletion were generated by adding either 1 μM or 1 mM of FeCl3, respectively, to LIM. 2% galactose was used to fully induce GAL1-driven gene overexpression. Total sugar concentration was maintained at 2% by the addition of raffinose in those experiments in which the % galactose was modulated to decrease expression levels. Cells were allowed to grow to mid-log phase in LIM and β-galactosidase assays on permeabilized yeast were performed as previously described (Lyons et al., 2000). Ferroxidase activity assays on intact yeast cells followed published procedures using ferrozine as a colorimetric indicator of iron oxidation state (De Silva et al., 1995). All experiments include triplicate data points and each experiment was performed a minimum of three times. Representative experiments are shown. All error bars represent ±1 standard deviation within a single experiment. Because of the simplicity of β-galactosidase assays and the fact that Izh2p overexpression similarly affects both lacZ and ferroxidase activity, lacZ assays are shown for most experiments. For some strains with significant growth defects, such as snf1Δ, lacZ assays were not performed because of the low efficiency of co-transformation of lacZ reporter and overexpression plasmids. […]

[1] = FET3-lacZ, steroids up to 10 μM

## CC(=O)[C@@]1(O)CC[C@H]2[C@@H]3CCC4=CC(=O)CC[C@]4(C)[C@H]3CC[C@@]21C [17α-hydroxyprogesterone]
mPRγ; [1]
  agonist activity on mPRγ (in words): effective activator
mPRγ; mPRγ column of Table 4, ligand alone
  EC50: 0.0093 µM
mPRα; [1]
  agonist activity on mPRα (in words): effective activator
mPRα; further analysis of mPRα (pRS316 plasmid, 2% galactose per FIG. 7C)
  activation of mPRα, alterations at the 17 and 21 positions of the pregnane ring (in words): similarly effective activators
mPRα; mPRα column of Table 4, ligand alone, read-out: EC50
  EC50: 0.0102 µM
mPRα; read-out: EC50 for the activation of mPRα
  EC50: ~0.01 µM
PAQR6
  activation of PAQR6 (in words): can be activated
PAQR9
  activation of PAQR9 (in words): can be activated

## α-factor
Ste2p GPCR
  effect on FET3: no effect

## NC(=O)c1ncn([C@@H]2O[C@H](CO)[C@@H](O)[C@H]2O)c1N [AICAR]
pFET3-397
  effect on pFET3-397 activity: small but reproducible decrease
